Laboratory results taken from US11124479B2, “Oligopyrroles as antagonists of islet amyloid polypeptide oligomerization” (New York University, priority 2017, dated 2021).

Columns and labels:
[1] = target: T1, Aβ42 (Homo sapiens, UniProt P05067); experiment: ThT kinetic assay of Aβ42 fibrillation (specificity assay); assay type: biochemical
T1 construct: purchased
Procedure: Kinetic assays were conducted on a FlexStation 3 Multi-Mode Microplate reader from Molecular Devices (Sunnyvale, Calif.). Experiments were conducted in triplicate in a 96-well plate with a final volume of 200 μL per well. Every measurement was an average of 50 readings. The aggregation of IAPP was initiated by its addition from a stock solution (1 mM in DMSO) to phosphate buffer. The stoichiometry ratio for ThT to IAPP was 0.5:1. Peptide aggregation was monitored by ThT fluorescence (λex=445 nm and λem=485 nm). The blank sample contained all the components of the peptide samples except peptide. The sample data were processed by subtracting the blank and renormalizing the fluorescence intensity by setting the maximum value to 1.
Kinetic assays in the presence of the compounds of the invention were conducted under the same conditions. Small molecules were added from a stock solution (1 mM or 10 mM in DMSO) to keep the final concentration of DMSO less than 1.0% (v/v). Small molecules were added to the wells with ThT and buffer and mixed gently with a pipette before adding IAPP. To keep the conditions identical, an equal amount of DMSO was added to the wells with IAPP only reactions. For the aggregation kinetics of Aβ42, the peptide was dissolved in 1N NaOH (0.5-1 mM) and vortexed for 2 min. to ensure the complete solubility. The aggregation of 3 μM Aβ42 was initiated by addition of peptide from a stock solution (in 1 N NaOH, 0.5-1 mM) to phosphate buffer.
Kinetic profiles were processed using Origin (version 9.1). Kinetic curves were fit using the built-in sigmoidal fit. Each run was fit independently to extract the t50 (time required to reach 50% of the maximum fluorescence intensity). Error bars represent standard deviations from the mean of at least three independent experiments.
To test the specificity of ADH-101 towards IAPP, the binding interaction of ADH-101 with Aβ peptide was investigated. […]

[2] = Self-aggregation by UV, centrifugation and DLS; assay type: physicochemical
Description: ADH-101 contains hydrophobic and negatively charged groups and presents a possibility for self-aggregation. It has been shown that the small molecules with self-aggregation tendencies can inhibit amyloid formation in a non-specific manner. Therefore, UV, centrifugation, and DLS were used to explore the self-aggregation properties of ADH-101 (FIG. 12A).

[3] = test system: IAPP mediated cytotoxicity in Rat insulinoma cells (RIN-m); experiment: Cell viability (CellTiter Blue), IAPP-mediated cytotoxicity; assay type: cell-based; conditions: 6 μM IAPP, 48 h, IAPP alone ~68%
Procedure: (§1) For cell toxicity assays, Rat insulinoma cells (RIN-m) were as they are considered to be a good model for pancreatic β-cells (see Huang, C.; Lin, C.; Haataja, L., Gurlo, T., Butler, A. E., Rizza, R. A., and Butler, P. C. Diabetes, 2007, 56, 2016-2027). Rat insulinoma RIN-m cells (ATCC, Manassas, Va.) were cultured in RPMI medium supplemented with 10% fetal bovine serum, 1% penicillin/streptomycin, […] sodium pyruvate, and […] β-mercaptoethanol (Life Technologies, Carlsbad, Calif.) at 37° C. and 5% CO2. Upon reaching ˜95% confluence, cells were washed with phosphate buffered saline (VWR, Radnor, Pa.), split using 0.25% Trypsin-EDTA (Life Technologies), and plated in clear 96-well plates (Corning, Glenview, Ill.) for cell viability assays.
(§2) Cell viability was measured using the CellTiter Blue (CTB, Promega, Madison, Wis.) fluorescence-based assay. Cells were plated at a density of 20,000 cells per well in 96 well plates. After 48 h of incubation at 37° C. and 5% CO2, cells were washed with 100 μL of PBS. […] Fluorescence of the dye was measured on a FlexStation3 microplate reader (Molecular Devices, Sunnyvale, Calif.). […] Percent viability was calculated as per the following equation: % Viability=100*[(<S>−<P>)/(<N>−<P>)]
(§3) Where <S>, <P>, and <N> are the average fluorescence intensities of the sample, positive control, and negative control, respectively.

[4] = target: T2, islet amyloid polypeptide (IAPP) (Homo sapiens, UniProt P10997); experiment: Circular dichroism (CD) spectroscopy of IAPP conformation; conditions: for IAPP conformation by CD: 15 μM IAPP, equimolar ratio
T2 construct: IAPP is a 37 residue neuropancreatic hormone peptide; purchased Anaspec (Fremont, Calif.)
T2 sequence (P10997 34-70 limits assumed): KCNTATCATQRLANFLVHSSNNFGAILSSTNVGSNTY
Procedure: A freshly prepared stock solution of IAPP (500 μM in water) was diluted to 15 μM in phosphate buffer for CD measurements. The spectra of IAPP were recorded at 0.5 nm intervals from 190 to 260 nm with an averaging time of 10 sec. and an average of three repeats on an Aviv Stopped Flow CD Spectropolarimeter (Model 202SF). Spectra were recorded using the identical method as described above. ADH-101 was added to the solution of IAPP at an equimolar ratio. […]

[5] = test system: RIN-m cells; experiment: Cell viability (CellTiter Blue), compound alone without IAPP; assay type: cell-based, Rat; conditions: concentrations used for cell viability assays, no IAPP
Procedure: as §1, §2, §3

T1 sequence (P05067 672-713 limits assumed): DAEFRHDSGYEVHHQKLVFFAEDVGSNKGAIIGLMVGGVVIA

effect on Aβ42 fibrillation (in words) [1]: weak agonist
relative t50 for Aβ42 amyloid fiber formation ([1]; 3 μM Aβ42, equimolar ratio): 0.8 fold
t50 for the amyloid kinetics of Aβ42 in the presence of compound ([1]; 3 μM Aβ42, equimolar ratio, Aβ42 alone 4.22±0.51 h): 3.41 ± 0.32 h
diameter of species by DLS ([2]; 50 μM, 150 mM KCl, 50 mM NaPi, pH 7.4): less than 10 nm
concentration up to which the compound did not self-assemble ([2]; phosphate buffer, UV and centrifugation): > 40 µM
IAPP conformation by CD ([4]; phosphate buffer, after 8 hours): no β-sheet conformation was observed
conformation induced in IAPP ([4]; FIG. 3B): induces an α-helical conformation
induced CD signal around 340 nm ([4]; incubated with IAPP at equimolar ratio): positive induced CD signal
IAPP conformation by CD ([4]; lipid membrane (600 μM DOPG:DOPC 3:7), after 1 hour): stays in an α-helical state
Structure (SMILES): CCOC(=O)c1cc(NC(=O)c2cc(NC(=O)c3cc([N+](=O)[O-])cn3CC(C)C)cn2CC(C)C)cn1CCC(=O)O [ADH-101]
cell viability ([3]; ratio 1:1 (IAPP:ADH-101)): 100%
cell viability ([3]; ratio 1:2 (IAPP:ADH-101)): 100%
toxicity to the cells [5]: not toxic
